Patent US12569508B2, “Antimicrobial compositions and methods of use” (priority 2020, dated 2026)

Assays:
[1] = system: PAO1 biofilm (72 h, transferred); experiment: Transferred biofilm model; format: cell-based, P. aeruginosa; details: 15 μg/mL TOB; 0.05 mg/mL MO-LCNPs; 24 h
Description: Taking into account the toxicity data of the MO-LCNPs, additional biofilm activity studies were conducted to ensure a non-toxic concentration of MO-LCNPs maintained the activity of TOB in the MBEC Assay® PAO1 biofilm model. A variation in this biofilm model was employed to contrast the effect of the MO-LCNPs compared to the standard, MBEC® model. Briefly, from an overnight culture, PAO1 was diluted in M63 media to an OD of 0.01 in 500 μL in 24 well plates and incubated for 72 h at 37° C. to form biofilms. Breath seals were used to permit gas exchange during the 72 h incubation period. The 72 h biofilms were then washed with 200 μL PBS to remove planktonic bacteria. Then, using 500 μL of M63 buffer, the biofilms was scraped off from the bottom of the 24-well plate using a 1 mL pipette tip and transferred into a fresh plate. This formed microcolonies of biofilm that closely resembles the clinical environment. The treatments were then added on top of the biofilms and incubated for a further 24 h at 37° C. The treatments included 15 μg/mL of an unformulated TOB solution and TOB loaded in the MO-LCNPs
The amount of Pluronic F-127 in the MO-LCNPs TOB formulation was also varied to determine the effect the surface stabiliser had on the antimicrobial effect. […]

[2] = Deposition efficiency after nebulisation (Aerogen Pro vibrating mesh nebuliser); format: physicochemical; details: 100 μL nebulised into 24-well plate
Description: The Aerogen® Pro (vibrating mesh nebuliser) connected to a nebuliser chamber was used to aerosolise unformulated solutions of TOB, and LCNPs loaded with TOB. The nebulisation chamber fitted into the well of a 24-well plate, ensuring the dose was deposited into a single well. Before use, the nebuliser was rinsed twice with 0.9% NaCl. Then each formulation of TOB was tested to ensure an even aerosol was produced. 100 μL of TOB as an unformulated solution, and in MO-LCNPs and PHY-LCNPs was nebulised into the wells of a 24-well plate that contained 200 μL of 0.9% sodium chloride. The total drug concentration was then determined from each well to calculate the total mass deposited. […] The nebulised samples were assessed for particle size and zeta potential, as described above.
For the nebulisation samples and transport studies (see below), TOB was quantified by liquid chromatography tandem mass spectrometry (LC-MS) using a Dionex UltiMate 3000 Binary Rapid Separation LC System (Thermo Scientific, USA) coupled with a TSQ Quantum Access Max (QQQ, Thermo Scientific, USA) and a modified ion-pairing method. […] 3 μL of the samples were injected and quantification was done by ESI+ and the SRM of the ion 468.184→323.960.

CFBE41o− = format: cell-based, human
Description: Cell viability was assessed through taking the contents of the basolateral compartment media and reacting it with a Cytotoxicity Detection Kit (LDH) (Roche) to determine the amount of LDH released. 200 μL of the basolateral media was taken and centrifuged at 300×g for 10 mins. 100 μL of the supernatant was mixed with 100 μL of the reaction solution, as per manufacturer's instructions. LDH release was measured after 5-minute incubation at room temperature using a plate reader at an absorbance of 492 nm.

in vitro = in vitro ADME; details: human
Description: The barrier integrity of the CFBE41o− cell line cultured on the Transwell® supports was determined by both TEER (Srinivasan B et aL, 2015, Journal of Laboratory Automation, 20(2): 107-126) and sodium fluorescein transport (Molenda N et al., 2014, PLOS ONE, 9(6): p. e100621). Due to the variation in TEER measurements, sodium fluorescein transport provided a direct measurement of the tight junctions. On day 7 (4 days after cells are transferred to ALI), cells were incubated basolaterally with 1.7 mL KRB buffer and apically with 520 μL of 10 μg/mL sodium fluorescein (in KRB) with or without 16 mM ethylenediaminetetraacetic acid (EDTA). EDTA disrupts the tight junctions of a cell barrier. At 30-minute intervals, 20 μL samples were taken from the basolateral compartment and replaced with fresh KRB. […] The samples were then measured and compared to a standard curve via fluorescent spectroscopy (Tecan® plate reader, Tecan Deutschland GmbH, Germany) at excitation and emission wavelengths of […], respectively. […]
After TOB treatments were nebulised, at 5, 15, 30, 60, 120, 240 and 1440 minutes, 100 μL sample was taken from the basolateral compartment and replaced with fresh MEM media. The sample was then filtered through 4 mm Millex® syringe filters before LC-MS/MS analysis, as described above, to quantify the transport of TOB.

## NC[C@H]1O[C@H](O[C@H]2[C@H](O)[C@@H](O[C@H]3O[C@H](CO)[C@@H](O)[C@H](N)[C@H]3O)[C@H](N)C[C@@H]2N)[C@H](N)C[C@@H]1O [unformulated TOB, tobramycin]
[1]
  reduction in PAO1 load: two
[2]
  deposition efficiency of TOB: 3.25%
CFBE41o−
  epithelium cell monolayer viability: maintained the epithelium cell monolayer viability
CFBE41o−; human, 24 h
  cell viability of the epithelium monolayer: above 80%
In vitro
  Papp at 1440 min: 0.81 ×10⁻⁶ cm/s
